Counter-ions that a name gives are not always drawn.
Target: sigma receptors
Assay: sigma receptor binding, [3H]di(2-tolyl)-guanidine (DTG) assay, guinea pig brain membranes
Settings: [3H]DTG approximately 4 nM; male Hartley guinea pig brain membranes; 25° C. for 90 min; nonspecific binding 10 μM haloperidol
Description: Brain tissue was prepared from male Hartley guinea pigs (Hazelton Labs, Denver, Pa.) which were anesthetized with CO2 and sacrificed by decapitation. All animal care and use procedures were in accord with the "Guide for the Care and Use of Laboratory Animals" (NIH Publ. No. 86-23, 1985). Homogenization was performed in 10 volumes (wt/vol) of 0.32M sucrose with a Brinkmann Polytron at setting 5, 30 sec. The homogenate was centrifuged at 900×g for 10 min at 4° C., and the supernatant was collected and centrifuged at 22,000×g for 20 min at 4° C. The pellet was resuspended in 10 volumes of Tris-HCl buffer (50 mM, pH 7.4), incubated at 37° C. for 30 min and centrifuged at 22,000×g for 20 min at 4° C. Following this, the pellet was resuspended in Tris buffer and frozen in 5-10 mL aliquots corresponding to a tissue concentration of 100 mg/mL at -70° C. Binding characteristics of the membranes were stable for at least one month when stored at -70° C.
On the day of the assay, membrane aliquots were thawed, resuspended in fresh Tris buffer and stored on ice until use. Each assay tube contained 100 μL of [^3 H](+)pentazocine at a final concentration of approximately 0.5 nM, [^3 H]di(2-tolyl)-guanidine (DTG) at a final concentration of approximately 4 nM, 100 μL of various concentrations of the compounds of interest, 500 μL of the tissue suspension and 300 μL of buffer to a final assay volume of 1 mL and a final tissue concentration of approximately 8 mg/tube, corresponding to approximately 0.15 mg protein/tube. Nonspecific binding was defined by addition of a final concentration of 1 μM haloperidol to blank tubes for the [^3 H](+)pentazocine assay or by addition at a final concentration of 10 μM haloperidol to blank tubes for [^3 H] DTG assay. All tubes were incubated at 37° C. for 150 min ([^3 H](+)pentazocine) or at 25° C. for 90 min ([^3 H]DTG) before termination of the reaction by filtration over Whatman GF/B glass fiber filters that were presoaked in a solution of 0.5% polyethyleneimine for at lease 1 hr prior to use. Filters were washed with three 4 mL volumes of cold Tris-HCl buffer.
Following addition of scintillation cocktail, samples were allowed to equilibrate for at least 4 hr. The amount of bound radioactivity was determined by liquid scintillation spectrometry using a Beckman LS 5000 TA liquid scintillation counter with an efficiency for tritium of approximately 60%. The results are reported as a percent (%) inhibit ion of binding at 10 μM.
Data obtained on the compounds in the di(2-tolyl)guanidine (DTG) and d-pentazocine (+Pent) assays are expressed as a Ki value in nM. The number of determinations follow this value in parentheses.

SMILES	Ki [nM]
O=C(CCc1ccccc1)N1CCC(O)(c2ccccc2)CC1 [Example 1, 4-Phenyl-4-hyroxy-1-(3-phenylpropionyl) piperidine]	34400
O=C(O)C1(c2ccccc2)CCN(CCCc2ccccc2)CC1 [Example 2a, 4-phenyl-1-(3-phenylpropyl)-4-piperidinecarboxylic acid]	16.4
O=C(N1CCCC1)C1(c2ccccc2)CCN(CCCc2ccccc2)CC1 [Example 2b, 4-Phenyl-1-(3-phenylpropyl)-4-(1-pyrrolidinylcarbonyl)piperidine]	116
COc1cccc(C2CCN(CCCc3ccccc3)CC2)c1 [Example 3a, 4-(3-methoxyphenyl)-1-(3-phenylpropyl)piperidine hydrochloride]	2.21
Oc1cccc(C2CCN(CCCc3ccccc3)CC2)c1 [Example 3b, 4-(3-hydroxyphenyl)-1-(3-phenylpropyl)piperidine hydrochloride]	0.65
O=C(c1ccccc1)C1(c2ccccc2)CCN(CCCc2ccccc2)CC1 [Example 4, 4-benzoyl-4-phenyl-1-(3-phenylpropyl)piperidine]	22.1
CCC(=O)C1(c2ccccc2)CCN(CCCc2ccccc2)CC1 [Example 5, 4-Phenyl-1-(3-phenylpropyl)-4-propionylpiperidine]	9.1
CCC(=O)OC1(c2ccccc2)CCN(CCC(=NO)c2ccccc2)CC1 [Example 6, 4-Phenyl-1-(3-oximino-3-phenylpropyl)-4-propionoxypiperidine]	589
CCOC(=O)C1(c2ccccc2)CCN(CCCc2ccccc2)CC1 [Example 7, Ethyl 4-Phenyl-1-(3-phenylpropyl)-4-piperidinecarboxylate]	88.9

From patent US5364867A, “4-phenylpiperdine agents for treating cns disorders” (Sterling Winthrop Inc., priority 1992, dated 1994)
